Source: publication PMC5451472, “Novel Locally Active Estrogens Accelerate Cutaneous Wound Healing-Part 2” (Scientific Reports, 2017)

Test system: ER transcriptional activity
Test: Whole body in vivo bioluminescence imaging of ERE-Luc mice, dose-response after s.c. administration
Design: species or system mouse
Conditions: for Photon Emission, whole body: 6 h vs 0 h, n = 4
Text: To investigate the activity of 1e and 1f at systemic level, we utilized the ERE-Luc reporter mice. The ERE-luc is a transgenic model obtained by random integration of a luciferase reporter driven by an estrogen-responsive promoter. The ubiquitous, regulated expression of luciferase was obtained by flanking the reporter construct with insulators.
Here, the first study we carried out was a large-range dose-response analysis to measure whole body luciferase assay after subcutaneous administration of: (1) the vehicle; (2) corn oil as control; (3) the two compounds 1e and 1f at the dosage of 20 μg/kg, 200 μg/kg, 2 mg/kg and 20 mg/kg. The mice (4 for each experimental group) were subjected to in vivo whole body imaging 6 h after the pharmacological treatment. This time was selected on the basis of previous studies showing that the peak of ER transcriptional activation generally occurs at 6–8 h after administration of the estrogenic compounds[16], [17].
For the semi-quantitative analysis of in vivo photon emission, animals were injected i.p. with 80 mg/kg of luciferin (Beetle Luciferin Potassium Salt; Promega, Madison, WI, USA) 15 min prior the imaging session. For the imaging, mice were anaesthetized using isofluorane (Isofluorane-Vet; Merial, Lyon, France) and kept under anesthesia during the 5 minutes of the session carried out with a CCD camera: both ventral and dorsal acquisition (Xenogen IVIS Lumina System; Caliper, PerkinElmer company). Photon emission in selected body areas was measured using the Living Image Software (Caliper, PerkinElmer company). The analysis was done in ventral view: whole body, thymus, hepatic area, abdomen, limbs, vagina and in dorsal view in wound area and expressed as photon/second/cm2/steradiant (p/s/cm2/sr).

CCCCOC(=O)CCC#C[C@]1(O)CC[C@H]2[C@@H]3CCc4cc(O)ccc4[C@H]3CC[C@@]21C [1e, 3,17β-Hydroxy-17α-(4′carbobutoxy-1′-butyn-1′-yl)estra-1,3,5-(10)-triene]
Photon Emission, whole body (2 mg/kg s.c.): 3 x | Photon Emission, whole body (20 mg/kg s.c.): 12 x | expression of the luciferase reporter (2 and 20 mg/kg s.c., 6 h): induced the expression of the luciferase reporter around the area of subcutaneous injection and in some other body areas | effect at systemic level (whole body luciferase) (20 and 200 μg/kg s.c., 6 h): did not induce any measurable effect
